How the values were obtained:
[1] = format: physicochemical
Description: Concretely, 10 ml of a pure solvent or a solubiliser mixture were stirred in a beaker at ambient temperature. An amount of 2 mg phenolic or polyphenolic antioxidant was dispersed in the mixture and stirred. If the mixture became clear, the addition of phenolic or polyphenolic antioxidant was repeated until the mixture remained turbid even after stirring for 10 min. The maximum solubility was calculated as a percentage by mass (wt %) based on this experiment.

pig skin biopsies = experiment: Skin Antioxidative Potential (SAP), ESR with test radical TEMPO, ex vivo; format: cell-based; conditions: normalized to placebo-treated skin = 100%
From the text: Skin has intrinsic antioxidative protection thanks to the many enzymatic and non-enzymatic antioxidant systems present in the epidermis. A Skin Antioxidative Potential (SAP) can be measured by ESR spectroscopy using an active test radical that is reduced by the antioxidant systems inside the epidermis and dermis. The SAP value is a quantitative ex vivo determination of the antioxidant activity inside the epidermal and dermal layers of the skin.
In contrast, if the SAP value is below 100%, the topical treatment has diminished the skin's antioxidant defense system. Topical treatments with such negative effects on the skin antioxidant system are for example application of a chemical such as detergents or physical stress such as sun exposure.
The method entails applying the composition comprising the active substance (in this case resveratrol) to pig skin biopsies and testing the antioxidative power of the active substance. The antioxidative effect is dependent on whether the active substance is absorbed into the skin.
The measurements mere carried out as follows. Skin biopsies obtained from local slaughterhouse (pig skin, 6 month old animals, external lobe of the ears) were washed, the subdermal fat was removed and the skin was cut in 2×2 cm pieces.
Emulsions made as in example 2, with or without resveratrol, and with or without a solubiliser mix (dimethyl isosorbide, 1,5-pentanediol and panthenol) were applied on the epidermal layer of the biopsies. Skin pieces were placed on a filter paper saturated with the test radical (TEMPO, 2,2,6,6-tetramethyl piperidine-N-oxyl, Sigma-Aldrich, Munich, Germany). Skin biopsies of 4 cm were taken, placed in a special ESR tissue cell and ESR spectra of the test radical were recorded in a time-course experiment.
The amplitudes of the ESR spectra were plotted against time and the obtained kinetics were fitted using a mono-exponential first order decay algorithm.
The measurements were made after penetration times of between ten minutes and four hours. All values were normalized to the placebo-treated skin. […]

Row | solubility in water [1] | Compound | SAP value (pig skin biopsies; penetration time 10 min) [%] | SAP value (pig skin biopsies; penetration time 30 min) [%] | SAP value (pig skin biopsies; penetration time 120 min) [%]
1 | less than 0.01 wt % | Oc1ccc(/C=C/c2cc(O)cc(O)c2)cc1 [Resveratrol, 3,5,4′-trihydroxy-trans-stilbene] |  |  | 
2 |  | tocopherol | 114 ± 3 | 103 ± 6 | 100 ± 6
